Drawing on patent US7217708B2, “3,7-Diazabicyclo [3.3.1] formulations as anti-arrhythmic compounds” (Astrazeneca AB, priority 2001, dated 2007), this text covers melting point for one compound.

Molecules are shown by their SMILES.

In turn, `CC(C)(C)OC(=O)NCCN1CC2CN(CCCNc3ccc(C#N)cc3)CC(C1)O2` [Example 23, Compound B] registered a melting point of 113.5 °C.
